This note sets out measurements from US7122540B2, “2-Phenyl substituted imidazotriazinones as phosphodiesterase inhibitors” (Bayer HealthCare AG, priority 1997, dated 2006).

Structures are written as SMILES.

For orientation: IC50 means the concentration needed to halve the response being measured. The low end stands for greater potency in that assay, the high end for weaker potency in that assay.

One test addresses T1, PDE II (Bos taurus, UniProt P14099).
T1 construct: isolated either from porcine or bovine heart myocardium; from tissue; host or cells: porcine or bovine heart myocardium
T1 sequence (P14099 1-921): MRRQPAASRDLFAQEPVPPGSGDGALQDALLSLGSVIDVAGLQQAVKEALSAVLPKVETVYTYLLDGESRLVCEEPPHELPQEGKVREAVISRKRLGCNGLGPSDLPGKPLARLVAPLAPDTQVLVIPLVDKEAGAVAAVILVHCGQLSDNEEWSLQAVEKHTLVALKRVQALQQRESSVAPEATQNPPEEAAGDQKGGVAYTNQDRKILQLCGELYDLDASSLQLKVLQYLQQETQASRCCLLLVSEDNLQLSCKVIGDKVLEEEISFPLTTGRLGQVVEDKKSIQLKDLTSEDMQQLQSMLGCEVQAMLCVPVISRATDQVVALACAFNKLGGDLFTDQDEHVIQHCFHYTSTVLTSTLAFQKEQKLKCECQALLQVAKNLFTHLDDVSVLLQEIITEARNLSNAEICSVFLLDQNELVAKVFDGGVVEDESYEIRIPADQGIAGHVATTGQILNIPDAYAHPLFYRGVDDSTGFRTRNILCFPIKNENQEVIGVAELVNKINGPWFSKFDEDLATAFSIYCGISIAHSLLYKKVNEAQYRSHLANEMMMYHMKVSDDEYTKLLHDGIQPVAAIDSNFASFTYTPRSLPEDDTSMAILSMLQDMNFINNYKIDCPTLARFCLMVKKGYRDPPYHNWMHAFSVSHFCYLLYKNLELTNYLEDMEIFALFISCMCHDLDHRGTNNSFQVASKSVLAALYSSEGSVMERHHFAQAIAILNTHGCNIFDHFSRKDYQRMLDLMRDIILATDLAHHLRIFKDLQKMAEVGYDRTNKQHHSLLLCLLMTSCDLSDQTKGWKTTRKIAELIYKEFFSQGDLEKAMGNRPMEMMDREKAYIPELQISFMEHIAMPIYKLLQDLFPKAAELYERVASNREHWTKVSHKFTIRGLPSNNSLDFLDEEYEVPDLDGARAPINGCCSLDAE
Briefly: Inhibition of the phosphodiesterases in vitro: cGMP-stimulated PDE II. In kind it is biochemical, porcine or bovine. To be noted: [3H]cAMP substrate, 10^-6 mol/l cGMP added; concentration at which the reaction rate is reduced by 50%. As to the method: (§1) The cGMP-stimulated PDE II, the cGMP-inhibited PDE III and the cAMP-specific PDE IV were isolated either from porcine or bovine heart myocardium. The Ca^2+-calmodulin-stimulated PDE I was isolated from porcine aorta, porcine brain or, preferably, from bovine aorta. The cGMP-specific PDE V was obtained from porcine small intestine, porcine aorta, human platelets and, preferably, from bovine aorta. Purification was carried out by anion exchange chromatography over MonoQ® Pharmacia, essentially following the method of M. Hoey and Miles D. Houslay, Biochemical Pharmacology, Vol. 40, 193–202(1990) and C. Lugman et al., Biochemical Pharmacology, Vol. 35, 1743–1751(1986).
(§2) The enzyme activity is determined using a test mixture of 100 ml in 20 mM tris/HCI-buffer pH 7.5 containing 5 mM MgCl2, 0.1 mg/ml of bovine serum albumin and either 800Bq[^3H]cAMP or [^3H]cGMP. The final concentration of the nucleotides in question is 10^−6 mol/l. The reaction is initiated by addition of the enzyme and the amount of enzyme is such that during the incubation time of 30 min, approximately 50% of the substrate are converted. To test the cGMP-stimulated PDE II, [^3H]cAMP is used as substrate and 10^−6 mol/l of non-labelled cGMP are added to the mnixture. To test the Ca^2+-calmodulin-dependent PDE I, 1 mM of CaCl2 and […] are added to the reaction mixture. The reaction is quenched by addition of […] of acetonitrile containing 1 mM cAMP and 1 mM AMP. 100 ml of the reaction mixture are separated by HPLC, and the cleavage products are determined quantitatively on-line using a continuous scintillation counter. The substance concentration measured is the concentration at which the reaction rate is reduced by 50%. Additionally, the “phosphodiesterase [^3H] cAMP-SPA enzyme assay” and the “phosphodiesterase [^3H] cGMP-SPA enzyme assay” from Amersham Life Science were used for testing. The test was carried out according to the test protocol of the manufacturer. To determine the activity of PDE II, the [^3H]cAMP SPA assay was used, and 10^−6M cGMP were added to the reaction mixture to activate the enzyme. To measure PDE I, 10^−7M calmodulin and 1 mM CaCl2 were added to the reaction mixture. PDE V was measured using the [^3H]cGMP SPA assay.

Another test deals with T2, PDE V (Bos taurus, UniProt Q28156).
T2 construct: Purification was carried out by anion exchange chromatography over MonoQ; from tissue; host or cells: porcine small intestine, porcine aorta, human platelets or, preferably, bovine aorta
Briefly: Inhibition of the phosphodiesterases in vitro: cGMP-specific PDE V. In kind it is biochemical, porcine, human or, preferably, bovine. To be noted: [3H]cGMP substrate; concentration at which the reaction rate is reduced by 50%. As to the method:
The cGMP-stimulated PDE II, the cGMP-inhibited PDE III and the cAMP-specific PDE IV were isolated either from porcine or bovine heart myocardium. The Ca^2+-calmodulin-stimulated PDE I was isolated from porcine aorta, porcine brain or, preferably, from bovine aorta. The cGMP-specific PDE V was obtained from porcine small intestine, porcine aorta, human platelets and, preferably, from bovine aorta.
as §2

The next test concerns PDE I. Briefly: Inhibition of the phosphodiesterases in vitro: Ca2+-calmodulin-stimulated PDE I. The class given is biochemical, porcine or, preferably, bovine. Conditions: concentration at which the reaction rate is reduced by 50%; CaCl2 and calmodulin added. As for the experimental part: as §1, §2

`CCCc1nc(C)c2c(=O)[nH]c(-c3cc(S(=O)(=O)N(CC)CC)ccc3OCC)nn12` [Example 32, N,N-Diethyl-4-ethoxy-3-(5-methyl-4-oxo-7-propyl-3,4-dihydro-imidazo[5,1-f][1,2,4]triazin-2-yl)benzenesulphonamide]: the concentration for half-maximal inhibition (IC50) at PDE II is over 1000 nM; against PDE V, 4 nM; in the test on PDE I it was 100 nM.
On the same counts, the results for `CCCc1nc(C)c2c(=O)[nH]c(-c3cc(S(=O)(=O)N4CCN(CCO)CC4)ccc3OCC)nn12` [Example 27, 2-{2-Ethoxy-5-[4-(2-hydroxy-ethyl)-piperazine-1-sulphonyl]-phenyl}-5-methyl-7-propyl-3H-imidazo[5,1-f][1,2,4]triazin-4-one] are over 1000 nM, 3 nM and 200 nM.
On the same counts, the results for `CCCc1nc(C)c2c(=O)[nH]c(-c3cc(S(=O)(=O)N(CCC)CCO)ccc3OCC)nn12` [Example 275] are over 1000 nM, 3 nM and 50 nM.
In the case of `CCCc1nc(C)c2c(=O)[nH]c(-c3cc(S(=O)(=O)N4CCN(C)CC4)ccc3OCC)nn12` [Example 16, 2-[2-Ethoxy-5-(4-methyl-piperazine-1-sulphonyl)-phenyl]-5-methyl-7-propyl-3H-imidazo[5,1-f][1,2,4]triazin-4-one], the figures for the IC50 against PDE II, at PDE V and in the test with PDE I were over 1000 nM, 2 nM and 300 nM, respectively.
The matching figures for `CCCc1nc(C)c2c(=O)[nH]c(-c3cc(S(=O)(=O)N4CCOCC4)ccc3OCC)nn12` [Example 260]: over 1000 nM, 10 nM and 300 nM.
`CCCc1nc(C)c2c(=O)[nH]c(-c3cc(S(=O)(=O)N4CCN(CC)CC4)ccc3OCC)nn12` [Example 19, 2-[2-Ethoxy-5-(4-ethyl-piperazine-1-sulphonyl)-phenyl]-5-methyl-7-propyl-3H-imidazo[5,1-f][1,2,4]triazin-4-one] yielded a 50% inhibitory concentration (IC50) against PDE II of over 1000 nM.
For the molecule `CCCc1nc(C)c2c(=O)[nH]c(-c3cc(S(=O)(=O)N4CCC(O)CC4)ccc3OCC)nn12` [Example 26, 2-[2-Ethoxy-5-(4-hydroxy-piperidine-1-sulphonyl)-phenyl]-5-methyl-7-propyl-3H-imidazo[5,1-f][1,2,4]triazin-4-one], the IC50 on PDE II was over 1000 nM; against PDE V it was 1 nM; in the test on PDE I it was 100 nM.
